{"source": "patent US20080213183A1", "about": "“Free or Liposomal Gemcitabine Alone or in Combination with Free or Liposomal Idarubicin” (priority 2004, published 2008)", "key": {"[1]": {"tested_on": "P388 lymphocytic leukemia cells", "experiment": "MTT cytotoxicity assay with median effects (Chou and Talalay) analysis", "format": "cell-based, murine", "conditions": "for IC50 / IC90: Mus musculus; for IC50: P388, 72 h, read-out: IC50 (concentration required to achieve 50% cell kill); for IC90: P388, read-out: IC90 drug concentration (90% cell kill)", "experimental": "For in vitro analysis, P388 wild type and doxorubicin resistant (ADR) cells were obtained from the National Cancer Institute tissue repository (Bethesda, Md., USA) and were propagated in vivo. In brief, one vial of frozen ascites was removed from the nitrogen tank and thawed at 37° C. and cells were injected i.p. into female BDF-1 mice (6-8 weeks old, 20-22 g, Charles River Laboratories, St. Constant, QC, Canada). Transfer mice were euthanized and a peritoneal lavage was performed. With a 1 cc syringe with 20 gauge needle, 0.5-1.0 ml of peritoneal fluid was removed and aliquotted into a 15 ml falcon tube containing 5 ml of Hank's Balanced Salt Solution (HBSS, no calcium or magnesium). 0.5 ml aliquot was transferred into another 15 ml conical sterile tube containing 5 ml HBSS. The cells were exposed to plastic culture wear (for adherence of monocytes) and Ficoll-Paque density centrifugation (red blood cell removal). […] For each passage, 2 female BDF-1 mice were injected with 1×10^6 cells in 0.5 ml (2×10^6 cells/ml) of P388 cell suspension intraperitoneally. This was repeated every 6-8 days to a maximum of 20 passages. Cells adequate for animal experiments were used between the 3rd-20th passage. For tissue culture experiments such as MTT cytotoxicity assays, P388 cells were obtained following peritoneal lavage and treatment to remove red blood cells and peritoneal macrophages. […] In order to assess cytotoxicity the MTT (3-(4,5-dimethylthiazol-2-yl)-2,5-diphenyl tetrazolium bromide) assay was utilized. […] The wells in the perimeter of the 96 well microtiter plates contained 0.2 ml sterile water. […] Control wells consisted of media only (200 μl/well), or cells and media (no treatment). There were 6 replicates (per plate) for all control and treatment groups). […] The media was aspirated off and 0.15 ml DMSO was added per well and resuspended on a plate shaker (5-10 min). […] The cytotoxicity upon drug exposure was quantified by expressing the percent cell viability for each treatment relative to untreated control cells (% control). […] This was further analyzed by the median effects principle by Chou and Talalay, cited above. The method by Chou and Talalay was used to distinguish between synergy, antagonism and additive effects of combined drug treatments from in vitro MTT cytotoxicity assays. This method, now provided in a software package (Calculsyn; Biosoft, Cambridge, UK), derives a median effects equation (1) to correlate drug dose and effect. Fixed ratio combinations of idarubicin and gemcitabine were initially selected on the basis of IC50 of each drug. […] Data were reported as mean±S.D. from three separate experiments, performed in triplicate."}, "[2]": {"experiment": "Plasma elimination of free and liposomal gemcitabine", "format": "in vivo, Balb/c mice", "conditions": "33 μmole gemcitabine/kg i.v.", "experimental": "Pharmacokinetic Analysis: Balb/c mice breeders, 20-22 g, were purchased from Charles River Laboratories (St. Constant, QC, Canada) and bred in-house. Mice were housed in micro-isolator cages and given free access to food and water. All animal studies were conducted according to procedures approved by the University of British Columbia's Animal Care Committee and in accordance with the current guidelines established by the Canadian Council of Animal Care.\nThe plasma elimination of idarubicin and gemcitabine containing tracer quantities of 3[H]-gemcitabine was assessed. Mice were injected with 33 μmoles/kg drug administered intravenously into the lateral tail vein of Balb/c mice. At various time points up to 4 hours post drug administration, blood was collected by tail nick (collected in microfuge tubes) or cardiac puncture (collected in liquid EDTA coated tubes), centrifuged at 1000 g to isolate the plasma fraction. The plasma was placed in a separate microfuge tube and vortexed to ensure a homogenous distribution.\nThe tail nick procedure for obtaining blood samples was used to minimize the number of mice sacrificed. In this way, three blood samples could be obtained from a single mouse within a 24 hour time interval. In brief, the lateral tail vein of mice was nicked with a small sharp blade. A 25 μl glass pipette, pre-washed with EDTA, was used to withdraw blood. The blood was expelled into a microfuge tube containing 200 μl of 5% (wt/vol) EDTA and thoroughly mixed. Blood/EDTA samples were centrifuged for 10 minutes at 1000 g. The supernatant was transferred to a 1.5 ml microfuge tube. 250 μl Hank's balanced salt solution (HBSS) was added to the pellet, resuspended and centrifuged for 10 minutes at 1000 g. The supernatants were mixed together. Assuming a 48% hematocrit for a 20 gram Balb/c mice, approximately 13 μl plasma was obtained from a 25 μl blood sample. From the recovered plasma samples, aliquots were used to measure drug (and or lipid) concentrations.\nThe plasma elimination of liposomal drugs containing doxorubicin, daunorubicin, idarubicin, or gemcitabine samples administered intravenously into the lateral tail vein of Balb/c female mice was assessed. Mice were injected with 33 μmole/kg drug and 165 μmole/kg lipid. For liposomal gemcitabine samples, mice were injected with 33 μmole/kg gemcitabine at an approximate 0.1 drug-to-lipid mole ratio). At various time points post drug administration, blood was collected by tail nick or cardiac puncture. Plasma lipid and 3[H]-gemcitabine were quantified by liquid scintillation counting. Anthracyclines were extracted from plasma with a partitioning assay, followed by fluorescence spectrometer detection.\nThe plasma elimination data was modeled using WinNonlin (version 1.5) pharmacokinetic software (Pharsight Corporation, Mountain View, Calif., USA) to calculate pharmacokinetic parameters. […] The mean plasma AUC for a defined time interval was determined from the concentration-time curves and subsequent calculation by the standard trapezoidal rule.\nLiposome mediated increases in gemcitabine blood residence time were also evaluated as follows: Free and liposomal gemcitabine formulations were administered to female Balb/c mice at a dose of 33 μmole gemcitabine/kg (9.9 mg/kg) and 165 μmole total lipid/kg."}, "[3]": {"experiment": "Dose range finding, maximum tolerable dose", "format": "in vivo", "conditions": "no significant toxicity for 30 days", "experimental": "Dose range finding studies of free and liposomal idarubicin and/or gemcitabine were performed in non-tumor bearing female BDF-1 mice. Mice were weighed daily and monitored for signs of stress or toxicity (e.g., lethargy, scruffy coat, ataxia)."}, "[4]": {"tested_on": "non small cell lung cancer", "conditions": "cited from earlier work"}, "[5]": {"conditions": "at IC90, GEM/IDA 1:1 fixed molar ratio"}, "[6]": {"conditions": "at IC90, GEM/IDA 1:10 fixed molar ratio"}, "[7]": {"conditions": "female, Balb/c, mouse, iv, 33 μmole/kg, plasma"}}, "note": "Counter-ions that a name gives are not always drawn. Like-named read-outs stand apart in the source and are kept apart here. Marks after values point to notes of the source that are not given here.", "data": [{"smiles": "CC(=O)[C@]1(O)Cc2c(O)c3c(c(O)c2[C@@H](O[C@H]2C[C@H](N)[C@H](O)[C@H](C)O2)C1)C(=O)c1ccccc1C3=O", "note": "[IDA, idarubicin hydrochloride]", "values": [{"measurement": "IC50", "setting": "[1]", "result": 1.8, "unit": "nM"}, {"measurement": "IC90", "setting": "[1]", "result": 5.7, "unit": "nM"}, {"measurement": "dose reduction index (DRI)", "setting": "[1]; [5]", "result": 11.8}, {"measurement": "dose reduction index (DRI)", "setting": "[1]; [6]", "result": 8.5}, {"measurement": "fold reduction in concentration required", "setting": "[1]; at IC90, GEM/IDA 10:1 fixed ratio", "result": 180, "unit": "fold"}, {"measurement": "% ILS", "setting": "P388 tumors; IDA 0.5 mg/kg", "result": 13, "unit": "%"}, {"measurement": "% Weight Change, day 5", "setting": "P388 tumors; IDA 0.5 mg/kg", "result": 13.6, "unit": "%"}, {"measurement": "Cell Kill", "setting": "P388 tumors; IDA 0.5 mg/kg", "result": 0.6, "unit": "LOG10"}, {"measurement": "MST", "setting": "P388 tumors; IDA 0.5 mg/kg", "result": 9, "unit": "days"}, {"measurement": "Survivors", "setting": "P388 tumors; IDA 0.5 mg/kg", "result": "0/12"}, {"measurement": "% ILS", "setting": "P388 tumors; IDA 1 mg/kg", "result": 50, "unit": "%"}, {"measurement": "% Weight Change, day 5", "setting": "P388 tumors; IDA 1 mg/kg", "result": 2.1, "unit": "%"}, {"measurement": "Cell Kill", "setting": "P388 tumors; IDA 1 mg/kg", "result": 2.3, "unit": "LOG10"}, {"measurement": "MST", "setting": "P388 tumors; IDA 1 mg/kg", "result": 12, "unit": "days"}, {"measurement": "Survivors", "setting": "P388 tumors; IDA 1 mg/kg", "result": "0/12"}, {"measurement": "% ILS", "setting": "P388 tumors; IDA 2 mg/kg", "result": 113, "unit": "%"}, {"measurement": "% Weight Change, day 5", "setting": "P388 tumors; IDA 2 mg/kg", "result": "−1.4", "unit": "%"}, {"measurement": "Cell Kill", "setting": "P388 tumors; IDA 2 mg/kg", "result": 5.1, "unit": "LOG10"}, {"measurement": "MST", "setting": "P388 tumors; IDA 2 mg/kg", "result": 17, "unit": "days"}, {"measurement": "Survivors", "setting": "P388 tumors; IDA 2 mg/kg", "result": "1/12"}]}, {"smiles": "Nc1ccn([C@@H]2O[C@H](CO)[C@@H](O)C2(F)F)c(=O)n1", "note": "[GEM, gemcitabine hydrochloride]", "values": [{"measurement": "AUC0-t", "setting": "[2]; Tlast 4 hours", "result": "0.1^b μmole · h · ml^−1"}, {"measurement": "AUMC", "setting": "[2]; plasma", "result": 0.3, "unit": "μmole · h^2 · ml^−1"}, {"measurement": "MRT last", "setting": "[2]; [7]", "result": 3.1, "unit": "h"}, {"measurement": "clearance", "setting": "[2]; [7]", "result": 0.102, "unit": "mL/min"}, {"measurement": "half-life", "setting": "[2]; [7]", "result": 2.1, "unit": "h"}, {"measurement": "IC50", "setting": "[1]", "result": 0.26, "unit": "nM"}, {"measurement": "IC90", "setting": "[1]", "result": 0.9, "unit": "nM"}, {"measurement": "dose reduction index (DRI)", "setting": "[1]; [5]", "result": 1.8}, {"measurement": "dose reduction index (DRI)", "setting": "[1]; [6]", "result": 14}, {"measurement": "fold more cytotoxic than idarubicin", "setting": "[1]; from IC50", "result": "approximately 10 fold"}, {"measurement": "% ILS", "setting": "P388 tumors; GEM 100 mg/kg", "result": 63, "unit": "%"}, {"measurement": "% Weight Change, day 5", "setting": "P388 tumors; GEM 100 mg/kg", "result": 0.4, "unit": "%"}, {"measurement": "Cell Kill", "setting": "P388 tumors; GEM 100 mg/kg", "result": 2.9, "unit": "LOG10"}, {"measurement": "MST", "setting": "P388 tumors; GEM 100 mg/kg", "result": 13, "unit": "days"}, {"measurement": "Survivors", "setting": "P388 tumors; GEM 100 mg/kg", "result": "0/6"}, {"measurement": "% ILS", "setting": "P388 tumors; GEM 200 mg/kg", "result": 81, "unit": "%"}, {"measurement": "% Weight Change, day 5", "setting": "P388 tumors; GEM 200 mg/kg", "result": 3.0, "unit": "%"}, {"measurement": "Cell Kill", "setting": "P388 tumors; GEM 200 mg/kg", "result": 3.7, "unit": "LOG10"}, {"measurement": "MST", "setting": "P388 tumors; GEM 200 mg/kg", "result": 14.5, "unit": "days"}, {"measurement": "Survivors", "setting": "P388 tumors; GEM 200 mg/kg", "result": "0/6"}, {"measurement": "% ILS", "setting": "P388 tumors; GEM 300 mg/kg", "result": 81, "unit": "%"}, {"measurement": "% Weight Change, day 5", "setting": "P388 tumors; GEM 300 mg/kg", "result": 2.3, "unit": "%"}, {"measurement": "Cell Kill", "setting": "P388 tumors; GEM 300 mg/kg", "result": 3.7, "unit": "LOG10"}, {"measurement": "MST", "setting": "P388 tumors; GEM 300 mg/kg", "result": 14.5, "unit": "days"}, {"measurement": "Survivors", "setting": "P388 tumors; GEM 300 mg/kg", "result": "0/6"}, {"measurement": "% Weight Change, day 5", "setting": "P388 tumors; GEM 400 mg/kg", "result": 1.8, "unit": "%"}, {"measurement": "Cell Kill", "setting": "P388 tumors; GEM 400 mg/kg", "result": 4.0, "unit": "LOG10"}, {"measurement": "MST", "setting": "P388 tumors; GEM 400 mg/kg", "result": 15, "unit": "days"}, {"measurement": "Survivors", "setting": "P388 tumors; GEM 400 mg/kg", "result": "0/6"}, {"measurement": "% ILS", "setting": "P388 tumors; GEM 400 mg/kg, hydrochloride", "result": 88, "unit": "%"}, {"measurement": "% ILS", "setting": "P388 tumors; GEM 400 mg/kg, listed as free gemcitabine, hydrochloride", "result": 87.5, "unit": "%"}, {"measurement": "% ILS", "setting": "P388 tumors; GEM 500 mg/kg", "result": 75, "unit": "%"}, {"measurement": "% Weight Change, day 5", "setting": "P388 tumors; GEM 500 mg/kg", "result": 0.0, "unit": "%"}, {"measurement": "Cell Kill", "setting": "P388 tumors; GEM 500 mg/kg", "result": 3.4, "unit": "LOG10"}, {"measurement": "MST", "setting": "P388 tumors; GEM 500 mg/kg", "result": 14, "unit": "days"}, {"measurement": "Survivors", "setting": "P388 tumors; GEM 500 mg/kg", "result": "0/10"}, {"measurement": "maximum therapeutic dose", "setting": "P388 tumors; P388 model, single agent", "result": 400, "unit": "mg/kg"}, {"measurement": "maximum tolerable dose", "setting": "[3]", "result": 500, "unit": "mg/kg"}, {"measurement": "overall response rate", "setting": "[4]; 800-1250 mg/m2, in combination with cisplatin", "result": 50, "unit": "%"}, {"measurement": "overall response rate", "setting": "[4]; 800-1250 mg/m2, single agent", "result": 20, "unit": "%"}, {"measurement": "median survival", "setting": "[4]; in combination with cisplatin", "result": "greater than 1 year"}]}]}
